{
  "source": "paper PMC4472245",
  "about": "“Alternative divalent cations (Zn^2+, Co^2+, and Mn^2+) are not mutagenic at conditions optimal for HIV-1 reverse transcriptase activity” (BMC Biochemistry, 2015)",
  "key": {"[1]": {"biological_target": "T1, HIV RT (HIV-1 reverse transcriptase, p66/p51) (HIV-1 M:B_HXB2R, UniProt P04585)", "T1 construct": "gene gag-pol", "conditions": "read-out: ^d K m / μM, 0.4 mM free Zn2+ instead of Mg2+, DNA primer-template, pH 7.7, 37 °C", "text": "steady-state running-start incorporation, gel on HIV RT (HIV-1 reverse transcriptase, p66/p51)"}, "[2]": {"biological_target": "T1, HIV RT (HIV-1 reverse transcriptase, p66/p51)", "conditions": "read-out: ^d K m / μM; 0.4 mM free Zn2+ instead of Mg2+; DNA primer-template with matched C.G 3' end; next correct nucleotide; pH 7.7, 37 °C, 80 mM KCl"}},
  "note": "Where two headings read alike, the source gives them in different places.",
  "data": [
    {"smiles": "Nc1ncnc2c1ncn2[C@H]1C[C@H](O)[C@@H](COP(=O)(O)OP(=O)(O)OP(=O)(O)O)O1", "note": "[dATP]", "values": [
      {"measurement": "Km", "setting": "[1]; misinsertion opposite template C (C.A mismatch)", "value": "518 ± 43", "unit": "µM"}
    ]},
    {"smiles": "Nc1ccn([C@H]2C[C@H](O)[C@@H](COP(=O)(O)OP(=O)(O)OP(=O)(O)O)O2)c(=O)n1", "note": "[dCTP]", "values": [
      {"measurement": "Km", "setting": "[2]", "value": "0.04 ± 0.01", "unit": "µM"}
    ]},
    {"smiles": "Nc1nc2c(ncn2[C@H]2C[C@H](O)[C@@H](COP(=O)(O)OP(=O)(O)OP(=O)(O)O)O2)c(=O)[nH]1", "note": "[dGTP]", "values": [
      {"measurement": "Km", "setting": "[1]; correct insertion opposite template C (C.G), 55 μM dATP", "value": "0.19 ± 0.09", "unit": "µM"}
    ]},
    {"smiles": "Cc1cn([C@H]2C[C@H](O)[C@@H](COP(=O)(O)OP(=O)(O)OP(=O)(O)O)O2)c(=O)[nH]c1=O", "note": "[dTTP]", "values": [
      {"measurement": "Km", "setting": "[1]; misinsertion opposite template C (C.T mismatch), 55 μM dATP", "value": "244 ± 102", "unit": "µM"}
    ]}
  ]
}
